Results reported in PMC8537458, “Anti-Inflammatory Azaphilones from the Edible Alga-Derived Fungus Penicillium sclerotiorum” (Marine Drugs, 2021).
“Also recorded” adds a separate entry of the source.

Key:
Assay type in all cases: cell-based
phospho-NFκB p65(S536) = assay: TNF-α-induced NFκB phosphorylation by immunoblotting; settings: 20 ng/mL TNF-α, 30 min, THP-1 cells, n = 3
Method: (§1) THP-1 monocyte cell line that was gifted from Prof. Tsung-Hsien Chang (National Defense Medical Center, Taiwan) was used to examine for TNF-α-induced NFκB phosphorylation; CCD966SK fibroblast cell line that purchased from Bioresource Collection and Research Centre (BCRC; Taiwan) was used to examine for TGF-β-induced Smad2/3 phosphorylation. The procedure of protein preparation, separation, blotting, and detection was conducted referred to previously. The primary antibodies against phospho-NFκB p65(S536), NFκB p65, phospho-Smad 2(S465/467)/Smad 3(S423/425), and Smad 2/3 were purchased from Cell Signaling (USA). The level of Gapdh expression served as an internal control for protein loading. The annotated number represents the quantified level from normalized by both NFκB p65/Smad 2/3 and Gapdh and calculated the fold change phospho-NFκB or phospho-Smad 2/3 to their DMSO vehicle control group by ImageJ software. IκB/IKK inhibitor BAY 11-7082 (Cayman) and TGFβRI inhibitor LY3200882 (Medchemexpres) as positive controls.
(§2) Statistical analysis was conducted via a one-tailed unpaired t-test in comparison compound treating group with the group only treated with TNF-α or TGF-β by Microsoft Excel software. The significance was annotated on plots of the result, * for p < 0.05, ** for p < 0.01, and *** for p < 0.001.

[1] = test system: NFκB responsive element luciferase reporter in HEK293A cells; assay: NFκB transcriptional activity reporter assay; settings: 20 ng/mL TNF-α, 24 h, n = 6
Method: (§3) Reporter plasmids (Promega, Madison, WI, USA) with luciferase driven by NFκB or SMAD responsive elements were stably established in HEK293A cells and maintained by a puromycin-containing culture medium. Chemiluminescence levels represent the luciferase expression was determined by the ONE-Glo reagent (Promega, USA). The fold change of each group to the DMSO vehicle control group was calculated.
as §2

[2] = MTT cytotoxicity assay, summary over the cell panel; settings: human; general density of 1 × 10^4/96-well; most cells / various cancer cells
Method: (§4) The cell lines A549, MCF-7, MDA-MB-231, SH-SY5Y, and WI-38 were purchased from Bioresource Collection and Research Centre (BCRC; Taiwan). […] Chin-Chung Wu (Kaohsiung Medical University, Taiwan), and HCT15 and HCT116 cells were given by Prof. Chen-Yang Shen (Academia Sinica, Taiwan). 1 × 10^3 or 1 × 10^4 cells were seeded in a 96-well one day before compounds treatment.

[3] = test system: phospho-Smad 2(S465/467)/Smad 3(S423/425); assay: TGF-β-induced Smad2/3 phosphorylation by immunoblotting; settings: 20 ng/mL TGF-β, 30 min, CCD966SK fibroblasts, n = 3
Method: as §1, §2

[4] = test system: SMAD responsive element luciferase reporter in HEK293A cells; assay: SMAD transcriptional activity reporter assay; settings: 20 ng/mL TGF-β, 24 h
Method: as §3, §2

MTT cytotoxicity assay = settings: human, SH-SY5Y neuroblastoma cells
Method: as §4

SH-SY5Y = assay: MTT cytotoxicity assay; settings: among seven cancer and one fibroblast cell lines
Method: as §4

SMILES	TNF-α-induced NFκB phosphorylation (phospho-NFκB p65(S536); 20 μM compound)	NFκB transcriptional activity by reporter assay ([1]; 20 μM compound)	IC50 at 48 h [2] [µM]	TGF-β-induced Smad2/3 phosphorylation ([3]; 20 μM compound)	TGF-β-stimulated SMAD transcriptional activity ([4]; 20 μM compound, n = 6)	other results
CC[C@H](C)/C=C(C)/C=C/C1=CC2=C(Cl)C(=O)[C@](C)(O)[C@H](OC(C)=O)[C@H]2CO1 [Compound 7, isochromophilone IV]	inhibit; also recorded: significantly reduce	did not change; also recorded: remains	> 100			
CC[C@H](C)[C@@H](O)[C@](C)(O)/C=C/C1=CC2=C(Cl)C(=O)[C@](C)(O)[C@H](OC(C)=O)[C@H]2CO1 [Compound 3, hypocrellone A]	inhibit; also recorded: significantly reduce	did not change; also recorded: remains	> 100	decrease		
CCC(C)C(O)C(C)(O)C=CC1=CC2=C(Cl)C(=O)C(C)(O)C(OC(C)=O)C2CO1 (stereo not drawn) [Compound 2, 8a-epi-eupenicilazaphilone C]				significantly increase; also recorded: promote	promote; also recorded: increased	
CC[C@H](C)[C@@H](O)[C@@](C)(O)/C=C/C1=CC2=C(Cl)C(=O)[C@](C)(O)[C@H](OC(C)=O)[C@H]2CO1 [Compound 4, eupenicilazaphilone C]			> 100		increased	
Cc1ccc(S(=O)(=O)/C=C/C#N)cc1 [BAY 11-7082, reference compound]						TNF-α-induced NFκB phosphorylation (phospho-NFκB p65(S536); 10 μM positive control): significantly reduce; NFκB transcriptional activity by reporter assay ([1]; 10 μM positive control): alter
CCC(C)C(O)C(C)(O)C=CC1=CC2=C(Cl)C(=O)C(C)(O)C(OC(C)=O)C2CO1 (stereo not drawn) [Compound 1, 8a-epi-hypocrellone A]	inhibit; also recorded: significantly reduce	did not change; also recorded: remains	> 100		increased	IC50 at 48 h (MTT cytotoxicity assay; general density 1 × 10^4/96-well (Table 2)): 35.6 µM; IC50 at 48 h (MTT cytotoxicity assay; very low density 1 × 10^3/96-well (Table 3)): 26.8 µM; selective toxicity toward SH-SY5Y (SH-SY5Y): selective toxicity
COc1cccc2c1C(=O)c1c(O)c3c(c(O)c1C2=O)C[C@@](O)(C(=O)CO)C[C@@H]3O[C@H]1C[C@H](N)[C@H](O)[C@H](C)O1 [doxorubicin, reference compound]			0.36 to 3.7			
CC[C@H](C)/C=C(C)/C=C/C1=CC2=C(Cl)C(=O)[C@](C)(OC(C)=O)C(=O)C2=CO1 [Compound 6, sclerotiorin]			> 100	inhibited	inhibited; also recorded: decreased	
CC[C@H](C)/C=C(C)/C=C/c1cc(O)c(C)c(O)c1C=O [Compound 5, ((1E,3E)-3,5-dimethylhepta-1,3-dien-1-yl)-2,4-dihydroxy-3-methylbenzaldehyde]			> 100			
CC(C)(O)c1cc(Nc2cc(Oc3cn(C4CC4)nc3C3CCOCC3)ccn2)ccn1 [LY3200882, reference compound]						TGF-β-induced Smad2/3 phosphorylation ([3]; 1 μM positive control, listed as TGFβRI inhibitor): trend toward a decrease; TGF-β-stimulated SMAD transcriptional activity ([4]; 1 μM positive control, n = 6, listed as TGFβRI inhibitor): decreased
